Results on five compounds are retold here after patent US10105384B2, “Nucleic acids targeting TCTP for use in the treatment of chemo- or hormone-resistant cancers” (INSTITUT NATIONAL DE LA SANTE ET DE LA RECHERCHE MEDICALE …, priority 2010, dated 2018).

Peptide text beside a SMILES is read from it. * marks the point of attachment. Cbz = O=C(OCc1ccccc1)*

Common to all, as to format: cell-based, human
Series [1] deals with TCTP. Nature of the series: TCTP half-life / proteasomal degradation in PC-3 cells (western blot). The note with it: for TCTP protein levels decrease: PC-3 cells, cycloheximide alone 20 μg/ml. The procedure:
Cells were plated at a density of 25,000 (PC-3) and 75 000 (LNCaP and C4-2) by 1.9 cm^2 and treated the day after with indicated siRNA or ASO for 1 or 2 days respectively. Oligofectamine, a cationic lipid (Invitrogen), was used to increase siRNA or ASO uptake into the cells. Cells were treated with indicated siRNA or ASO concentrations after a preincubation for 20 min with […] of oligofectamine in serum free OPTI-MEM (Invitrogen). Four hours later, 1 ml of FCS was added in the medium. […]
To determine whether the ubiquitination of TCTP results in its proteasomal degradation, TCTP half-life was determined after OGX-427 treatment, in the presence or absence of the proteasome inhibitor MG132 and protein synthesis inhibitor cycloheximide after 2 days.
Background: Immunoblotting shows a protein as a band on a membrane.

For series [2], the system named is TCTP. Nature of the series: TCTP level in LNCaP cells after Hsp27 down-regulation by OGX-427 (western blot, mRNA). The protocol: (§1) Western Blot analysis was performed as described previously (Rocchi et al., 2004, Cancer Res. 64:6595-602) with 1:5000 rabbit anti-Hsp27 polyclonal antibody (Assay Designs, Villeurbanne, France), 1:2000 rabbit TCTP polyclonal antibody (Abcam Inc., Cambridge, UK), 1:250 rabbit anti-MSL1v1 polyclonal antibody (Abcam Inc.), 1:500 mouse anti-ubiquitin monoclonal antibody (Santa Cruz Biotechnology Inc., Heidelberg, Germany) or 1:1000 rabbit anti-caspase-3 polyclonal antibody (Cell Signalling Technology Inc., Danvers, USA). Loading levels were normalized using 1:5000 rabbit anti-glyceraldehyde-3-phosphate dehydrogenase polyclonal (Abcam Inc.) or 1:2500 mouse anti-vinculine monoclonal antibodies (Sigma Chemical Co., St Louis, Mo., USA).
2′-O-(2-rnethoxyethyl) ASO, OGX-427, was obtained from OncoGenex. The sequence of OGX-427 corresponds to the human Hsp27 translation initiation site (5′-GGGACGCGG-CGCTCGGTCAT-3′) (SEQ ID NO: 12). A mismatch ASO (ASO; 5′-[…]-3′) (SEQ ID NO: 13) was used as a control. The TCTP phosphorithioate ASO targeting the human TCTP (5′-[…]-3′) (SEQ ID NO: 2) and the control oligonucleotide (5′-CGTGTAGGTACGGCAGATC-3′) (SEQ ID NO: 4) were purchased from Operon (Eurofin MWG, Courtaboeuf, France) and designated ASO TCTP or ASO scrambled. […]

Series [3] deals with TCTP. Nature of the series: ASO sequences screening: TCTP expression by western blot and/or qRT-PCR. The note with it: WB and/or qRT-PCR, PC-3 cells overexpressing TCTP. The protocol: as §1
The quantitative reverse transcription polymerase chain reaction (qRT-PCR) analysis was done on a LightCycler detection system (Roche Applied Science, Meylan, France). Expression levels of 18S subunit of the ribosome gene were used as an internal control. First strand cDNA was synthesized from 1 μg of total RNA using random hexamers and expanded by reverse transcriptase according to the manufacturer's instructions (ImProm-II Reverse Transcription System, Promega, Charbonniéres-les-Bains, France), subsequently diluted 1:10 with water, and stored at −20° C. until use. TCTP and 18S polymerase chain reaction (PCR) products were detected by quantitative real time PCR (qRT-PCR) using the SYBR Premix Ex Taq (Takara Bio Inc, St Germain en Laye, France) following the manufacturer's instructions. Five microliters of diluted cDNA template were mixed with 10 μl SYBR Premix Ex Taq (including Taq polymerase, reaction buffer, MgCl2, SYBR green I dye, and deoxynucleotide triphosphate mix) and 0.4 μM forward and reverse primers, in a final volume of 20 μl. The following primers were used: TCTP forward 5′-[…]-3′ (SEQ ID NO: 8) and TCTP reverse 5′-[…]-3′; (SEQ ID NO: 9); 18S forward 5′-[…]-3′ (SEQ ID NO: 10) and 18S reverse 5′-[…]-3′ (SEQ ID NO: 11). After an initial Taq activation for 10 seconds at 95° C., Light Cycler PCR was done using 55 cycles with the following cycling conditions: 95° C. for 5 seconds, 58° C. for 7 seconds, and 72° C. for 14 seconds. Each sample was analyzed in duplicate and the experiment was repeated three times. Results were analyzed using RealQuant data analysis software (Roche, Neuilly-sur-seine, France). The results analysis was done with the 2(-Delta Delta C(T)) Method (Livak K J. et al., 2001; Methods. 25:402-8).
In order to find a sequence ASO having an inhibiting effect on TCTP expression, 30 ASO sequences have been designed 26 of which are shown in table 1. Said 30 sequences cover the TCTP mRNA (accession number NM_003295). Using BLAST program, the specificity of said sequences has been studied. Among said 30 sequences, only 15 sequences have been identified as being specific for TCPT mRNA sequence (see table 1). The effect of said ASO sequences on TCTP expression was tested by western blot analysis (WB) and/or by quantitative reverse transcription polymerase chain reaction (qRT-PCR) on PC-3 cells overexpressing TCTP. WB and qRT-PCR were performed as exposed in example 1.

Series [4] concerns PC-3 cells. Nature of the series: MTT cell growth assay, PC-3 cells. The note with it: PC-3 cells, 50 nM docetaxel 24 h, MTT. The protocol:
In brief, cells were seeded in each well of 12-well microtiter plates (30 000 to 50 000 cells per well) and allowed to attach overnight. To study the effect of TCTP downregulation on apoptosis induced by docetaxel, PC-3 cells were transiently transfected the day after seeding with 5 nM of TCTP siRNA for 48 h or 100 nM of TCTP ASO for 72 h. Cells were then treated with 50 nM of docetaxel and MTT assays were performed after 24 h. To assess the effect of TCTP downregulation on Hsp27 cytoprotection, LNCaP-Mock and -Hsp27 cells were transiently transfected the day after seeding with 5 nM of TCTP siRNA for 48 h. The down- or upregulation of TCTP effect on LNCaP and C4-2 cell viability was realized after transient transfections with 100 nM of TCTP ASO or 0.02 μg/μl of pDEST-TCTP for 72 h and 48 h respectively. Cells were then treated with 1 nM of docetaxel in serum-free media (mimics androgen withdrawal in vitro) and crystal violet assays were performed the day after. Each assay was performed in triplicate.
To assess the effect of TCTP down-regulation on CR cell growth, PC-3 cells were treated for 1 day with 5 nM TCTP siRNA or for 2 days with 100 nM TCTP ASO. At the end of the treatment, PC-3 cells were incubated with 50 nM of docetaxel. Growth rates of PC-3 cells were examined using the 3-(4,5-dimethylthiazol-2-yl)-2,5-diphenyltetrazolium bromide assay. […] The effect of the inhibition of TCTP on cell survival was analyzed in PC-3 after combined ASO and docetaxel-chemotherapy treatment. After 24 h of treatment with 50 nM of docetaxel, cell viability was determined using a MTT assay. The experiment was repeated in triplicate. *** differs from PC-3 transfected with control-siRNA (P50.001) using Statview software. […] The same effect has been observed with TCTP siRNA (SEQ ID NO: 3) and 5′-[…]-3′ (SEQ ID NO: 14) and 5′-[…]-3′ (SEQ ID NO: 15) ASOs.
PC3 cells were transfected with a TCTP siRNA of SEQ ID NO: 3. Cell proliferation and apoptosis were studied using respectively MTT (3-(4,5-dimethylthiazol-2-yl)-2,5-diphenyl tetrazolium bromure) assay and flow cytometry.
PC3 cells were transfected with a TCTP ASO of SEQ ID NO: 2. Cell proliferation and apoptosis were studied using respectively MTT assay and flow cytometry.
(In general: Tetrazolium dyes change colour on reduction, which living cells bring about.)

With `CC(C)C[C@@H](C=O)NC(=O)[C@H](CC(C)C)NC(=O)[C@H](CC(C)C)NC(=O)OCc1ccccc1` [MG132] (Cbz-Leu-Leu-Leu-aldehyde), the TCTP half-life entry in series [1] (PC-3 cells after OGX-427 treatment, MG132 10 μmol/L) was “prolonged the half-life of TCTP”.
For the compound `C[C@@H]1C[C@@H]([C@H](O)CC2CC(=O)NC(=O)C2)C(=O)[C@@H](C)C1` [cycloheximide], the “TCTP protein levels decrease” value in series [1] (24 h) was 40%; in series [1] (48 h), 60%.
For “5′-GGGACGCGG-CGCTCGGTCAT-3′ (antisense GGGACGCGGCGCTCGGTCAT; 2'-O-(2-methoxyethyl) modified ASO, pattern not given here) [OGX-427, 2′-O-(2-methoxyethyl) ASO from OncoGenex corresponding to the human Hsp27 translation initiation site]”, the “TCTP mRNA expression level” value in series [2] (LNCaP cells treated by OGX-427) was “without any change”. The “TCTP protein level lower than OGX-427-control” value in series [2] (LNCaP cells, western blot) came to 70%.
For the compound “5′-TGGTTCATGACAATATCGAC-3′ (all phosphorothioate, sugars by position and methylation of C not given here) [ASO14]”, in series [3], the “ability to inhibit TCTP expression” value was “strong ability to inhibit TCTP expression” and the “best ability to inhibit specifically TCTP expression” value was “best ability to inhibit specifically TCTP expression”. In series [4], the “enhancement of docetaxel sensitivity” value is listed as “same effect”.
“5′-AACTTGTTTCCTGCAGGTGA-3′ (all phosphorothioate, sugars by position and methylation of C not given here) [ASO15]”: in series [3], the “ability to inhibit TCTP expression” value is recorded as “strong ability to inhibit TCTP expression” and the “best ability to inhibit specifically TCTP expression” value was “best ability to inhibit specifically TCTP expression”. Further, in series [4], the “enhancement of docetaxel sensitivity” value is on record as “same effect”.
